78 compounds from publication PMC12040169 (PLOS Biology, 2025) can be followed below.

The nature of the first series: in vitro. As to conditions: human, hela cells, % viability.
In the case of `O=C(Nc1nnc(-c2ccccc2)o1)c1nc2ccccc2s1` [CBK287595], the viability (as a rule, a read-out of living cells in per cent, often relative to untreated cells) at 28.5 h, 10 µM came to 91.2%.
For the compound `CCOC(=O)c1cnc2c(C)cc(C)cc2c1NCCN1CCOCC1` [CBK264757], the viability at 28.5 h, 10 µM was 109%.
As for `Nc1ncc(-c2ccoc2)nc1NCc1ccco1` [CBK063652], the viability at 28.5 h, 10 µM worked out at 97.2%.
`CCC1C=CCC(C(=O)O)C1C(=O)Nc1ccc(C(=O)N2CCOCC2)cc1` (stereo not drawn) [CBK265798]: the viability at 28.5 h, 10 µM stood at 102%.
With `Cc1ccc(S(=O)(=O)N(CC(=O)O)c2ccc(C(C)C)cc2)cc1` [CBK287116], the viability at 28.5 h, 10 µM is 85.3%.
As to `Cc1cc2c(o1)c1cnn(CC(=O)N(C)C)c(=O)c1n2C(C)C` [CBK284233], the viability at 28.5 h, 10 µM is 88.9%.
On to `CCOC(=O)[C@H]1CC[C@]2(CC1)CN(C)C(=O)c1ccccc1O2` [CBK284848], for which the viability at 28.5 h, 10 µM stood at 101%.
For `CCC(CC)C(=O)N1CCC2(CC1)Nc1cccnc1-n1cccc12` [CBK284508], the viability at 28.5 h, 10 µM came to 80.7%.
For `NS(=O)(=O)c1ccc(NCc2ccccc2OCc2ccccc2F)cc1` [CBK268935], the viability at 28.5 h, 10 µM was determined as 91.8%.
`CN(C)C(=O)c1nccnc1-c1ccc(COc2ccc3c(c2)OCO3)cc1` [CBK050829]: the viability at 28.5 h, 10 µM was found to be 91.1%.
For `COC(=O)c1ccc(-c2cn3ccnc3c(NCc3ccncc3)n2)cc1` [CBK066734], the viability at 28.5 h, 10 µM came to 88.2%.
Consider `O=C(NCCC1=CCCCC1)Nc1ccc2ccccc2c1` [CBK044195], for which the viability at 28.5 h, 10 µM is 104%.
On to `CCc1nnc(COC(=O)c2ccccc2NC(=O)Cc2ccccc2)o1` [CBK296762], for which the viability at 28.5 h, 10 µM came out at 81.5%.
With `CC(C)(C)OC(=O)N1CCC(CNCc2c[nH]c(-c3ccccc3)n2)CC1` [CBK056718], the viability at 28.5 h, 10 µM was 94.3%.
In the case of `COc1ccc([C@@H]2CN(C(=O)c3ccccc3)[C@H]3CCN(Cc4ccc(F)cc4)C[C@@H]23)cc1` [CBK285581], the viability at 28.5 h, 10 µM turned out to be 109%.
On to `N#Cc1c(NC(=O)CSc2nnc(-c3ccncc3)o2)sc2c1CCCC2` [CBK266374], for which the viability at 28.5 h, 10 µM is 99.2%.
Take `O=C1CCCN1c1ccc(S(=O)(=O)NCC2CC3CCC2C3)cc1` (stereo not drawn) [CBK282841]: the viability at 28.5 h, 10 µM came out at 106%.
With `CC(C)Oc1ncc(C(=O)Nc2ccc(OCCC(N)=O)cc2)cc1Cl` [CBK305750], the viability at 28.5 h, 10 µM was determined as 102%.
For the compound `Cc1cc(F)ccc1NC(=O)c1n[nH]cc1Cl` [CBK288020], the viability at 28.5 h, 10 µM came to 92.4%.
For `CN(Cc1nc2c(s1)CCCC2)C(=O)CCn1nnc2ccccc21` [CBK306704], the viability at 28.5 h, 10 µM was 107%.
Turning to `COc1ccc2[nH]c(C(=O)O)c(CCC(=O)O)c2c1` [CBK266582], the viability at 28.5 h, 10 µM worked out at 98.1%.
Consider `CCOc1ccc(C2=NN(C(=O)CCC(=O)O)C(c3ccc4nccnc4c3)C2)cc1` (stereo not drawn) [CBK296703], for which the viability at 28.5 h, 10 µM was determined as 103%.
On to `Cc1ccc2nc(C)c(CCC(=O)O)c(O)c2c1` [CBK262946], for which the viability at 28.5 h, 10 µM worked out at 91.8%.
Regarding `CCC(CC)C(=O)N1CCCC1c1nn(C)cc1-c1cc(C)no1` (stereo not drawn) [CBK283452], the viability at 28.5 h, 10 µM was found to be 84.5%.
As for `CCCN(CC1CC1)C1CCc2cccc(C(N)=O)c2C1` (stereo not drawn) [CBK016579], the viability at 28.5 h, 10 µM was 114%.
Take `Oc1n[nH]c2c1CCC2` [CBK260873]: the viability at 28.5 h, 10 µM came to 95.4%.
Consider `CN(C)c1cccc(-c2cnc3[nH]c(=O)n(CCc4ccncc4)c3n2)c1` [CBK064628], for which the viability at 28.5 h, 10 µM was 91.1%.
`CC(=O)NC(c1ccccn1)C1CCCN(C(=O)C(C)C)C1` (stereo not drawn) [CBK285030]: the viability at 28.5 h, 10 µM turned out to be 111%.
Turning to `Cn1ccnc1C1(O)CC2CCC(C1)N2C(=O)NCc1ccccc1` (stereo not drawn) [CBK284050], the viability at 28.5 h, 10 µM worked out at 81.3%.
`COc1ccc2[nH]cc(/C=C3\C(=O)Nc4ncccc43)c2c1` [CBK017826]: the viability at 28.5 h, 10 µM was determined as 88.3%.
Still for that read-out and setting: the value for `CC(C)(C)c1ccc(S(=O)(=O)N2CCCC[C@H]2COC(=O)COCC(=O)O)cc1` [CBK200064] was 96.6%.
In the case of `O=C(NCCCn1ccnc1)c1cccnc1-c1nc2ccccc2s1` [CBK269939], the viability at 28.5 h, 10 µM is 90.5%.
As for `CCN(CC)C(=O)N1CCC(c2ccncc2)CC1` [CBK283503], the viability at 28.5 h, 10 µM was 101%.
Turning to `COc1cccc(Sc2cc(N3CCCC3)ncn2)c1` [CBK089533], the viability at 28.5 h, 10 µM is 110%.
In the case of `O=[N+]([O-])c1ccc2c(c1)C(N1CCOCC1)/C(=C/COc1ccc3ccccc3c1Br)O2` (stereo not drawn) [CBK262738], the viability at 28.5 h, 10 µM was found to be 97.1%.
As to `Cc1noc(C)c1NC(=O)c1cnccc1C(F)(F)F` [CBK200306], the viability at 28.5 h, 10 µM amounted to 99.1%.
Take `O=C(COC(=O)c1cc(-c2ccco2)nc2ccccc12)Nc1ccc(F)c(F)c1F` [CBK296115]: the viability at 28.5 h, 10 µM came to 84.6%.
Same read-out and setting: under `O=C(OCc1cc2ccccc2o1)N1CCOCC1` [CBK200162] stands 98.1%.
The same measure, in the same setting: the value for `O=S(=O)(Nc1nn(Cc2ccc(C(F)(F)F)cc2)c2ccccc12)c1cccc2nsnc12` [CBK048086] was 94.8%.
For the compound `O=C(NCc1ccccn1)C1CC(=O)N(c2ccccc2)C1` (stereo not drawn) [CBK270175], the viability at 28.5 h, 10 µM is 88.7%.
Consider `COc1ccc(-c2noc(COc3cccc(C(=O)O)c3)n2)c(OC)c1` [CBK298279], for which the viability at 28.5 h, 10 µM stood at 101%.
The same measure, in the same setting: under `COc1cccc(/C=C\c2onc(C)c2[N+](=O)[O-])c1OCC(=O)O` [CBK269063] stands 104%; under `COc1cccc2[nH]c(C(=O)N3CCOC(c4cccc(-c5c(F)cccc5F)n4)C3)cc12` (stereo not drawn) [CBK285948], 110%; under `CC(=O)NC1(c2ccccc2)CCN(C(=O)Nc2ccccc2-c2ccccc2)CC1` [CBK286288], 94.9%.
Same read-out and setting: under `COc1ccc(C(=O)N[C@H]2CO[C@H]3[C@@H]2OC[C@H]3OC(=O)Nc2ccccc2)cc1` [CBK289463] stands 103%; under `OC(COCc1ccc2c(c1)OCO2)CN1CCN(C(c2ccccc2)c2ccccc2)CC1` (stereo not drawn) [CBK074850C], 83.2%.
Same read-out and setting: the value for `O=C(CC1CCN(C(=O)Cc2ccccc2)CC1)Nc1nc2c(s1)CCCCC2` [CBK286001] was 90.3%; that for `Cc1cc(Br)ccc1NC(=O)Cn1cnc2c1c(=O)n(C)c(=O)n2C` [CBK133289] was 95.6%; that for `COc1ccc(-c2cnc(Nc3ccc(N4CCOCC4)cc3)c3nccn23)cn1` [CBK091238] was 92%.
Turning to `O=C(O)c1ccccc1NC(=S)NC(=O)c1ccccc1[N+](=O)[O-]` [CBK264963], the viability at 28.5 h, 10 µM was found to be 96.2%.
For the compound `Cc1nc(C2CCN(C(=O)c3ccncc3)CC2)c2sccn12` [CBK282235], the viability at 28.5 h, 10 µM is 99.9%.
For `O=C(NCCN1CCCCC1)C1CC(=O)N(Cc2ccncc2)C1` (stereo not drawn) [CBK306629], the viability at 28.5 h, 10 µM came to 100%.
On to `O=C(Nc1cc(N2CCNCC2)ncn1)c1cnc2ccccc2c1` [CBK004209T], for which the viability at 28.5 h, 10 µM worked out at 80.5%.
On the same count and under the same terms, the value for `CN1CCN(C(=O)c2ccccc2N(Cc2ccccc2)S(C)(=O)=O)CC1` [CBK266267] was 101%.
Consider `CCN(CC)C(=O)CN1C(=O)C2(Nc3ccccc3C(=O)N2c2ccc(F)cc2)c2ccccc21` (stereo not drawn) [CBK103751], for which the viability at 28.5 h, 10 µM stood at 83.3%.
On the same count and under the same terms, under `Cc1cc([N+](=O)[O-])ccc1-c1ccc(C(=O)Nc2ccc(O)c(-c3nc4ccccc4s3)c2)o1` [CBK263421] stands 93%; under `Cn1c2ccccc2c2nnc(SCc3ccc4nonc4c3)nc21` [CBK267515], 89.9%; under `Cc1nn(C(C)CC(=O)NCC2CCN(C(C)C)CC2)c(C)c1C` (stereo not drawn) [CBK282703], 84.2%.
Still for that read-out and setting: under `O=C(Nc1ccccc1-c1nc2ccccc2s1)c1cc(Br)ccc1Cl` [CBK266280] stands 94.9%.
Turning to `Cc1ccc(S(=O)(=O)N(C)c2ccnc(N3CCNCC3)n2)cc1` [CBK200009], the viability at 28.5 h, 10 µM came to 107%.
As for `Cc1ccc(NC(=O)CN(c2ccccc2)S(=O)(=O)c2ccccc2[N+](=O)[O-])cc1C` [CBK262345], the viability at 28.5 h, 10 µM is 57.7%.
Take `COc1cccc(C(=O)N2CCCC(c3cc4ncccc4[nH]3)C2)c1` (stereo not drawn) [CBK283416]: the viability at 28.5 h, 10 µM turned out to be 104%.
On the same count and under the same terms, the value for `O=C(O)CCC(=O)N1c2ccccc2CC1c1ccccc1` (stereo not drawn) [CBK286860] was 91.1%; that for `COc1ccc(NC(=O)CSc2nc(N)cc(O)n2)c([N+](=O)[O-])c1` [CBK267904] was 101%.
The same measure, in the same setting: the value for `CC(=O)Nc1ccc(S(=O)(=O)Nc2cc(C)c(-n3nc4ccccc4n3)cc2O)cc1` [CBK268382] was 81.2%; that for `COc1cccc(NC(=O)O[C@@H]2CC[C@]3(C)C(CC[C@H]4OC(=O)C[C@H]43)[C@]2(C)CO)c1` (stereo partly drawn) [CBK289576] was 95.2%.
`CCN(CC)C(=O)CN1CCN(c2nccnc2OCC2COc3ccccc3O2)CC1` (stereo not drawn) [CBK082803T]: the viability at 28.5 h, 10 µM stood at 96.5%.
Turning to `COc1ccc(-c2noc(CNC(=O)Cc3ccc(-c4ccccc4)cc3)n2)cc1` [CBK269272], the viability at 28.5 h, 10 µM worked out at 105%.
For `CCCc1cc(CNC(=O)c2ccnn2C(C)C)on1` [CBK282047], the viability at 28.5 h, 10 µM was 97.4%.
Turning to `CCCCNc1cc(N2CCOC(c3cnn(CC)c3)C2)nc(N)n1` (stereo not drawn) [CBK305423], the viability at 28.5 h, 10 µM turned out to be 93.8%.
As to `CC1=C(C(=O)OCc2ccccc2)C2(C(=O)Nc3ccccc32)C(C(=O)OCc2ccccc2)=C(N)O1` (stereo not drawn) [CBK262576], the viability at 28.5 h, 10 µM came out at 89.6%.
On the same count and under the same terms, the value for `CC1CCN(Cc2ccc(-c3nnn(CC(=O)NCc4ccc(C(F)(F)F)nc4)n3)cc2)CC1` [CBK149721T] was 112%; that for `COC(=O)c1sccc1NS(=O)(=O)c1ccccc1C(F)(F)F` [CBK034717] was 108%.
Still for that read-out and setting: under `O=C(NCCc1ccccc1)NCCc1cccs1` [CBK045154] stands 114%; under `O=C(C1CCCC1)N1CC(n2nc(-c3cccs3)ccc2=O)C1` [CBK283345], 86.8%.
As for `CCOc1ccc(-n2c(SCc3nc4ccccc4[nH]3)nc3sc4c(c3c2=O)CCCC4)cc1` [CBK264581], the viability at 28.5 h, 10 µM is 103%.
As to `Cc1nnc(NS(=O)(=O)c2ccc(OC(F)(F)F)cc2)s1` [CBK026673], the viability at 28.5 h, 10 µM amounted to 95.9%.

Staying with this series, now noted: human, hela cells, % viability, bulk resorufin, single well.
For the compound `CC(C)(C)OC(=O)N1CCC2(CC1)OCc1cc(-c3cccc(OCc4ccc(Cl)c(Cl)c4)c3)ccc1O2` [CBK105230], the viability at 28.5 h, 10 µM turned out to be 86.6%.
